# Where “and” joins values, the source holds several entries; their conditions need not be identical. Equal entries are not always repeated. Where two headings read alike, the source gives them in different places.
# Test system: Phytophthora infestans (resistant to metalaxyl)
# Type: in vivo
# [1] = Cultivar Cara, 16 mg/L active ingredient, 5 days post inoculation, Table 3
# [2] = Cultivar Cara, 62 mg/L active ingredient, 5 days post inoculation, Table 3
# [3] = Cultivar Cara, 250 mg/L active ingredient, 5 days post inoculation, Table 3
# [4] = Cultivar Cara, 1000 mg/L active ingredient, 5 days post inoculation, Table 3
# [5] = Cultivar Draga, 16 mg/L active ingredient, 5 days post inoculation, Table 3
# [6] = Cultivar Draga, 62 mg/L active ingredient, 5 days post inoculation, Table 3
# [7] = Cultivar Draga, 250 mg/L active ingredient, 5 days post inoculation, Table 3
# [8] = Cultivar Draga, 1000 mg/L active ingredient, 5 days post inoculation, Table 3
# [9] = 16 mg/L active ingredient, 7 days post inoculation, Table 8
# [10] = 25 mg/L active ingredient, 5 days post inoculation, Table 12
# [11] = 62 mg/L active ingredient, 7 days post inoculation, Table 8
# [12] = 125 mg/L active ingredient, 4 day post inoculation, Table 7
# [13] = 250 mg/L active ingredient, 4 days post inoculation, Table 11
# [14] = 250 mg/L active ingredient, 7 days post inoculation, Table 8
# [15] = 16 mg/L active ingredient, 5 days post inoculation, Table 2
# [16] = 16 mg/L active ingredient, 6 day post inoculation, Table 6
# [17] = 62 mg/L active ingredient, 5 days post inoculation, Table 2
# [18] = 62 mg/L active ingredient, 6 day post inoculation, Table 6
# [19] = 250 mg/L active ingredient, 5 days post inoculation, Table 2
# [20] = 250 mg/L active ingredient, 6 day post inoculation, Table 6
# [21] = 1000 mg/L active ingredient, 6 day post inoculation, Table 6
# [22] = 250 mg/L active ingredient, Table 27
# [23] = 500 mg/L active ingredient, Table 27
# [24] = 1000 mg/L active ingredient, Table 27
structure (smiles),measurement,setting,value
"CCO[PH](=O)O [Fosetyl − Al, phosetyl-aluminium]",Percent Disease Control,[1],9%
same,Percent Disease Control,[2],24%
same,Percent Disease Control,[3],24%
same,Percent Disease Control,[4],70%
same,ED90,"Cultivar Cara, 5 days post inoculation, Table 3",1390 µg/mL
same,Percent Disease Control,[5],33%
same,Percent Disease Control,[6],33%
same,Percent Disease Control,[7],50%
same,Percent Disease Control,[8],93%
same,ED90,"Cultivar Draga, 5 days post inoculation, Table 3",856 µg/mL
CCCCCCCCOC(=O)CC(C)NC(=O)c1ccccc1 (racemic) [N-benzoyl octyl ester derivative of BABA],Percent Disease Control,[9],3%
same,Percent Disease Control,"16 mg/L active ingredient, 7 days post inoculation, Table 9",0%
same,Percent Disease Control,"16 mg/L active ingredient, 7 days post inoculation, Table 10",0%
same,Percent Disease Control,[10],15%
same,Percent Disease Control,[11],25%
same,Percent Disease Control,"62 mg/L active ingredient, 7 days post inoculation, Table 9",0%
same,Percent Disease Control,"62 mg/L active ingredient, 7 days post inoculation, Table 10",0%
same,Percent Disease Control,[12],15%
same,Percent Disease Control,"250 mg/L active ingredient, 4 day post inoculation, Table 7",25%
same,Percent Disease Control,[13],63%
same,Percent Disease Control,[14],25%
same,Percent Disease Control,"250 mg/L active ingredient, 7 days post inoculation, Table 9",0%
same,Percent Disease Control,"250 mg/L active ingredient, 7 days post inoculation, Table 10",0%
same,Percent Disease Control,"500 mg/L active ingredient, 4 days post inoculation, Table 11",69%
same,Percent Disease Control,"500 mg/L active ingredient, 5 days post inoculation, Table 12",25%
same,Percent Disease Control,"1000 mg/L active ingredient, 4 day post inoculation, Table 7",50%
same,Percent Disease Control,"1000 mg/L active ingredient, 4 days post inoculation, Table 11",85%
same,Percent Disease Control,"1000 mg/L active ingredient, 5 days post inoculation, Table 12",50%
same,Percent Disease Control,"1000 mg/L active ingredient, 7 days post inoculation, Table 8",75%
same,Percent Disease Control,"1000 mg/L active ingredient, 7 days post inoculation, Table 9",25%
same,Percent Disease Control,"1000 mg/L active ingredient, 7 days post inoculation, Table 10",25%
same,Percent Disease Control,"2000 mg/L active ingredient, 4 day post inoculation, Table 7",53%
same,Percent Disease Control,"2000 mg/L active ingredient, 4 days post inoculation, Table 11",89%
same,Percent Disease Control,"2000 mg/L active ingredient, 5 days post inoculation, Table 12",53%
Cc1ccc(C(C)NC(=O)[C@@H](NC(=O)OC(C)C)C(C)C)cc1 (some centres unmarked) [Fencaramid],Percent Disease Control,"2 mg/L active ingredient, 4 day post inoculation, Table 7",0%
same,Percent Disease Control,"2 mg/L active ingredient, 5 days post inoculation, Table 12",0%
same,Percent Disease Control,"8 mg/L active ingredient, 4 day post inoculation, Table 7",50%
same,Percent Disease Control,"8 mg/L active ingredient, 5 days post inoculation, Table 12",50%
same,Percent Disease Control,[10],100%
same,Percent Disease Control,"31 mg/L active ingredient, 5 days post inoculation, Table 12",98%
same,Percent Disease Control,"32 mg/L active ingredient, 4 day post inoculation, Table 7",98%
same,Percent Disease Control,[12],100%
same,ED90,"4 day post inoculation, Table 7",19 µg/mL
same,ED90,"5 days post inoculation, Table 12",19 µg/mL
CCNC(=O)NC(=O)/C(C#N)=N/OC [Cymoxanil],Percent Disease Control,"4 mg/L active ingredient, 5 days post inoculation, Table 2",36%
same,Percent Disease Control,[15],73%
same,Percent Disease Control,[16],83%
same,Percent Disease Control,[17],64%
same,Percent Disease Control,[18],86%
same,Percent Disease Control,[19],98%
same,Percent Disease Control,[20],91%
same,Percent Disease Control,[21],100%
same,ED90,in vivo,128 µg/mL and 183 µg/mL
"[Cu+2].[OH-].[OH-] [Cu(OH)2, copper hydroxide]",Percent Disease Control,"4 mg/L active ingredient, 7 days post inoculation, Table 8",0%
same,Percent Disease Control,[9],0%
same,Percent Disease Control,[11],13%
same,Percent Disease Control,[14],75%
same,ED90,"7 days post inoculation, Table 8",298 µg/mL
"CC(N)CC(=O)O (stereo not drawn) [BABA, DLβ-amino-butanoic acid]",Percent Disease Control,"16 mg/L active ingredient, 5 day post inoculation, Table 4",3%
same,Percent Disease Control,[15],3%
same,Percent Disease Control,[16],22%
same,Percent Disease Control,"16 mg/L active ingredient, 7 days, Table 5",14%
same,Percent Disease Control,"32 mg/L active ingredient, 5 days post inoculation, Table 1",0%
same,Percent Disease Control,"62 mg/L active ingredient, 5 day post inoculation, Table 4",24%
same,Percent Disease Control,[17],24%
same,Percent Disease Control,[18],22%
same,Percent Disease Control,"62 mg/L active ingredient, 7 days, Table 5",14%
same,Percent Disease Control,"125 mg/L active ingredient, 5 days post inoculation, Table 1",0%
same,Percent Disease Control,"250 mg/L active ingredient, 5 day post inoculation, Table 4",18%
same,Percent Disease Control,"250 mg/L active ingredient, 5 days post inoculation, Table 1",0%
same,Percent Disease Control,[19],18%
same,Percent Disease Control,[20],22%
same,Percent Disease Control,"250 mg/L active ingredient, 7 days, Table 5",14%
same,Percent Disease Control,[22],38%
same,Percent Disease Control,[23],75%
same,Percent Disease Control,"1000 mg/L active ingredient, 5 day post inoculation, Table 4",64%
same,Percent Disease Control,"1000 mg/L active ingredient, 5 days post inoculation, Table 1",13%
same,Percent Disease Control,"1000 mg/L active ingredient, 5 days post inoculation, Table 2",64%
same,Percent Disease Control,[21],69%
same,Percent Disease Control,"1000 mg/L active ingredient, 7 days, Table 5",36%
same,Percent Disease Control,[24],93%
same,ED90,7 days,2617 µg/mL
same,Percent Disease Control,[1],9%
same,Percent Disease Control,[2],9%
same,Percent Disease Control,[3],9%
same,Percent Disease Control,[4],24%
same,Percent Disease Control,[5],0%
same,Percent Disease Control,[6],0%
same,Percent Disease Control,[7],0%
same,Percent Disease Control,[8],53%
"CSC(=O)c1cccc2nnsc12 [BION, Acibenzolar-s-methyl]",Percent Disease Control,[22],13%
same,Percent Disease Control,[23],25%
same,Percent Disease Control,[24],78%
same,ED90,Table 27,1173 µg/mL
"O=C1c2ccccc2C(=O)N1SC(Cl)(Cl)Cl [FOLPET, Folpet]",Percent Disease Control,"4 mg/L active ingredient, 4 days post inoculation, Table 11",70%
same,Percent Disease Control,"16 mg/L active ingredient, 4 days post inoculation, Table 11",75%
same,Percent Disease Control,[16],81%
same,Percent Disease Control,"62 mg/L active ingredient, 4 days post inoculation, Table 11",90%
same,Percent Disease Control,[18],95%
same,Percent Disease Control,[13],95%
same,Percent Disease Control,[20],98%
same,Percent Disease Control,[21],100%
same,ED90,"4 days post inoculation, Table 11",141 µg/mL
same,ED90,"6 day post inoculation, Table 6",84 µg/mL

# Source: patent US6414019B1, “Synergistic mixtures of selected amino acids” (Agrogene Ltd., priority 1997, dated 2002)
